From patent publication US7888363B2, “Viral polymerase inhibitors” (Boehringer Ingelheim International GmbH, priority 2003, dated 2011) come the findings set out here.

Broadly, the IC50 is the concentration at which inhibition is half-maximal. Read a low IC50 as greater potency in that assay.

In one assay the target is hepatitis C virus RNA dependant polymerase (NS5B) (Hepatitis C virus genotype 1b, UniProt P26663). As to the kind of experiment: Inhibition of NS5B RNA dependent RNA polymerase activity. Format: biochemical. Particulars: Table 1; HCV NS5B polymerase. Here is the method: A suitable assay is described in the examples.
hepatitis C virus RNA dependant polymerase (NS5B), sequence (P26663 2420-3010): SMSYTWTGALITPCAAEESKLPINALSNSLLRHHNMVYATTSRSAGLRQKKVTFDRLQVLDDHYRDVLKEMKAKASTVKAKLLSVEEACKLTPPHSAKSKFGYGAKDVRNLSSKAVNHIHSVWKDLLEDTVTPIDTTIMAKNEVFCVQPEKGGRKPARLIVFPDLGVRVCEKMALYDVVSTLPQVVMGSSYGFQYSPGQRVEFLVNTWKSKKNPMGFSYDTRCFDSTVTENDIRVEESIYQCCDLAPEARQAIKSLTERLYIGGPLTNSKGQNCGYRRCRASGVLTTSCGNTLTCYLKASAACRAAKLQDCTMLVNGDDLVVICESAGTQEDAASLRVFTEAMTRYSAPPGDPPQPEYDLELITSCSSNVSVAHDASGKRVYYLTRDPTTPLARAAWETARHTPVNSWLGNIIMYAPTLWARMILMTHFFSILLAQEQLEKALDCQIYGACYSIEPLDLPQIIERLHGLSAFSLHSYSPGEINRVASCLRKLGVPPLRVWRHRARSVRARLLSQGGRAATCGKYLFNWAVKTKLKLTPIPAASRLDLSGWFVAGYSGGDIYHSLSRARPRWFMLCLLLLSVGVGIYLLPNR
Inhibition of NS5B RNA Dependent RNA Polymerase Activity
The compounds of the invention were tested for inhibitory activity against the hepatitis C virus RNA dependant polymerase (NS5B), according to protocol described in WO 03/010141
With `O=C(Cn1c(-c2ccc(Br)cn2)c(C2CCCCC2)c2ccc(C(=O)O)cc21)N[C@@H](Cc1ccc(O)cc1)C(=O)O` [Example 1133], the IC50 lay in the range of 200 to 1000 nM.

Turning to `O=C(O)c1ccc2c(C3CCCCC3)c(-c3ccoc3)n(CC(=O)N3CCC(CCO)CC3)c2c1` [Example 1102], the IC50 was less than 200 nM.

In the case of `CN(C)C(=O)Cn1c(-c2ccco2)c(C2CCCCC2)c2ccc(C(=O)O)cc21` [Example 1031], the IC50 is less than 200 nM.

For `O=C(Cn1c(-c2ccoc2)c(C2CCCCC2)c2ccc(C(=O)O)cc21)Nc1ccc(C(=O)O)cc1` [Example 1061], the IC50 was in the range of 200 to 1000 nM.

The molecule `O=C(Cc1ccccc1)NNC(=O)Cn1c(-c2ccoc2)c(C2CCCCC2)c2ccc(C(=O)O)cc21` [Example 1117] had an IC50 of 200 to 1000 nM.

The molecule `CN(C)C(=O)Cn1c(-c2cccs2)c(C2CCCCC2)c2ccc(C(=O)O)cc21` [Example 1035] gave an IC50 of less than 200 nM.

`CS(=O)(=O)c1ccc(CNC(=O)Cn2c(-c3ccoc3)c(C3CCCCC3)c3ccc(C(=O)O)cc32)cc1` [Example 1127] displayed a concentration for half-maximal inhibition (IC50) of less than 200 nM.

The molecule `CCN(CC)CCN(C)C(=O)Cn1c(-c2ccoc2)c(C2CCCCC2)c2ccc(C(=O)O)cc21` [Example 1021] gave a half-inhibitory concentration (IC50) of less than 200 nM.

In the case of `O=C(O)/C=C/c1ccc(NC(=O)[C@@]2(NC(=O)Cn3c(-c4ccoc4)c(C4CCCCC4)c4ccc(C(=O)O)cc43)CCNC2)cc1` [Example 1079], the IC50 is less than 200 nM.

For the molecule `CC(C)(C)C(=O)Cn1c(-c2ccoc2)c(C2CCCCC2)c2ccc(C(=O)O)cc21` [Example 1001], the half-maximal inhibitory concentration (IC50) fell in the range of 200 to 1000 nM.

On to `CN(C)C(=O)Cn1c(-c2ccc(Br)cn2)c(C2CCCCC2)c2ccc(C(=O)O)cc21` [Example 1136], for which the IC50 lay within 200 to 1000 nM.

In the case of `O=C(O)c1ccc2c(C3CCCCC3)c(-c3ccoc3)n(CC(=O)N3CCN(c4ccccc4)CC3)c2c1` [Example 1095], the half-inhibitory concentration (IC50) was 200 to 1000 nM.

With `O=C(O)CN1CCN(C(=O)Cn2c(-c3ccoc3)c(C3CCCCC3)c3ccc(C(=O)O)cc32)CC1` [Example 1074], the half-inhibitory concentration (IC50) is less than 200 nM.

Molecule `COCCN(C)C(=O)Cn1c(-c2ccoc2)c(C2CCCCC2)c2ccc(C(=O)O)cc21` [Example 1124] displayed a half-inhibitory concentration (IC50) of 200 to 1000 nM.

As to `CC(C)NC(=O)Cn1c(-c2ccco2)c(C2CCCCC2)c2ccc(C(=O)O)cc21` [Example 1032], the IC50 is 200 to 1000 nM.

The assay is the same for the next values; noted with them: Table 2; HCV NS5B polymerase.
The molecule `O=C(NS(=O)(=O)c1cc(Cl)sc1Cl)c1ccc2c(C3CCCCC3)c(-c3ccoc3)n(CC(=O)N3CCOCC3)c2c1` [Example 2030] yielded an IC50 of less than 200 nM.

With `O=C(NS(=O)(=O)c1cc(F)ccc1F)c1ccc2c(C3CCCCC3)c(-c3ccoc3)n(CC(=O)N3CCOCC3)c2c1` [Example 2014], the IC50 was less than 200 nM.

For the molecule `O=C(NS(=O)(=O)c1c(Cl)nc2sccn12)c1ccc2c(C3CCCCC3)c(-c3ccoc3)n(CC(=O)N3CCOCC3)c2c1` [Example 2037], the half-inhibitory concentration (IC50) was less than 200 nM.

In the case of `O=C(NS(=O)(=O)c1ccc(OC(F)(F)F)cc1)c1ccc2c(C3CCCCC3)c(-c3ccoc3)n(CC(=O)N3CCOCC3)c2c1` [Example 2013], the IC50 is less than 200 nM.

As to `CC(C)(C)c1ccc(S(=O)(=O)NC(=O)c2ccc3c(C4CCCCC4)c(-c4ccoc4)n(CC(=O)N4CCOCC4)c3c2)cc1` [Example 2025], the 50% inhibitory concentration (IC50) was less than 200 nM.

The same assay, now with this note: Table 4; class ranges.
`NC(=O)C1(NC(=O)c2ccc3c(C4CCCCC4)c(-c4ccoc4)n(CC(=O)N4CCOCC4)c3c2)CCCCC1` [Example 4079] registered a 50% inhibitory concentration (IC50) of 200 to 1000 nM.

Consider `O=C(NCc1ccccc1)c1ccc2c(C3CCCCC3)c(-c3ccoc3)n(CC(=O)N3CCOCC3)c2c1` [Example 4047], for which the IC50 is 200 to 1000 nM.

On to `CCN1CCCC1CNC(=O)c1ccc2c(C3CCCCC3)c(-c3ccoc3)n(CC(=O)N3CCN(C)CC3)c2c1` (centres unmarked) [Example 4010], for which the IC50 fell in the range of 200 to 1000 nM.

`CN1CCN(C(=O)Cn2c(-c3ccoc3)c(C3CCCCC3)c3ccc(C(=O)NC4CCCC4)cc32)CC1` [Example 4008]: the IC50 was in the range of 200 to 1000 nM.

Molecule `COc1ccc(CNC(=O)c2ccc3c(C4CCCCC4)c(-c4ccoc4)n(CC(=O)N4CCN(C)CC4)c3c2)cc1OC` [Example 4003] registered a half-inhibitory concentration (IC50) of less than 200 nM.

As to `COc1ccc(CNC(=O)c2ccc3c(C4CCCCC4)c(-c4ccoc4)n(CC(=O)N4CCC(N5CCCC5)CC4)c3c2)cc1OC` [Example 4004], the IC50 is less than 200 nM.

`O=C(NCCc1ccncc1)c1ccc2c(C3CCCCC3)c(-c3ccoc3)n(CC(=O)N3CCOCC3)c2c1` [Example 4050] showed an IC50 of 200 to 1000 nM.

For the molecule `CNC(=O)C1(NC(=O)c2ccc3c(C4CCCCC4)c(-c4ccoc4)n(CC(=O)N4CCOCC4)c3c2)CCCC1` [Example 4096], the half-inhibitory concentration (IC50) is less than 200 nM.

In the case of `O=C(NS(=O)(=O)c1ccccc1)c1ccc2c(C3CCCCC3)c(-c3ccoc3)n(CC(=O)N3CCC(N4CCCC4)CC3)c2c1` [Example 4110], the IC50 is less than 200 nM.

`CN1CCN(C(=O)Cn2c(-c3ccoc3)c(C3CCCCC3)c3ccc(C(=O)NCCC4CCCN4C)cc32)CC1` (centres unmarked) [Example 4009] showed a concentration for half-maximal inhibition (IC50) of 200 to 1000 nM.

`CN1CCN(C(=O)Cn2c(-c3ccoc3)c(C3CCCCC3)c3ccc(C(=O)NCc4ccccc4)cc32)CC1` [Example 4021] yielded a half-inhibitory concentration (IC50) of 200 to 1000 nM.

Take `C[C@@H](NC(=O)c1ccc2c(C3CCCCC3)c(-c3ccoc3)n(CC(=O)N3CCC(N4CCCC4)CC3)c2c1)c1ccccc1` [Example 4005]: the half-inhibitory concentration (IC50) is less than 200 nM.

For `COc1cc(CNC(=O)c2ccc3c(C4CCCCC4)c(-c4ccoc4)n(CC(=O)N4CCOCC4)c3c2)ccc1O` [Example 4064], the half-maximal inhibitory concentration (IC50) lay in the range of 200 to 1000 nM.

For `O=C(NC1(C(=O)O)CCCC1)c1ccc2c(C3CCCCC3)c(-c3ccoc3)n(CC(=O)N3CCOCC3)c2c1` [Example 4074], the concentration for half-maximal inhibition (IC50) lay in the range of 200 to 1000 nM.

`CN1CCN(C(=O)Cn2c(-c3ccoc3)c(C3CCCCC3)c3ccc(C(=O)NC4CC4c4ccccc4)cc32)CC1` (racemic) [Example 4038] gave an IC50 of 200 to 1000 nM.

The assay is the same for the next values; noted with them: Table 5; HCV NS5B polymerase.
With `O=C(O)c1ccc2c(C3CCCCC3)c(-c3ccoc3)n(CCC(=O)N3CCOCC3)c2c1` [Example 5002], the IC50 lay within 200 to 1000 nM.

For `O=C(O)c1ccc2c(C3CCCCC3)c(-c3ccoc3)n(CC(=S)N3CCOCC3)c2c1` [Example 5001], the IC50 was in the range of 200 to 1000 nM.

The assay is the same for the next values; noted with them: Table 6; HCV NS5B polymerase.
The molecule `O=C(O)c1ccc2c(c1)c(C1CCCCC1)c(-c1ccoc1)n2CC(=O)N1CCC(N2CCCC2)CC1` [Example 6002] had an IC50 of less than 200 nM.

Staying with this assay, now noted: Table 7; class ranges.
Regarding `O=C(NCc1c(F)cccc1Cl)c1ccc2c(c1)c(C1CCCCC1)c(-c1ccoc1)n2CC(=O)N1CCC(N2CCCC2)CC1` [Example 7036], the IC50 is 1000 to 10000 nM.

Regarding `O=C(O)Cc1cccc(NC(=O)c2ccc3c(c2)c(C2CCCCC2)c(-c2ccoc2)n3CC(=O)N2CCC(N3CCCC3)CC2)c1` [Example 7055], the IC50 was 1000 to 10000 nM.

Turning to `O=C(NCc1ccc(F)c(C(F)(F)F)c1)c1ccc2c(c1)c(C1CCCCC1)c(-c1ccoc1)n2CC(=O)N1CCC(N2CCCC2)CC1` [Example 7042], the half-inhibitory concentration (IC50) lay in the range of 1000 to 10000 nM.

`O=C(NS(=O)(=O)c1ccccc1)c1ccc2c(c1)c(C1CCCCC1)c(-c1ccoc1)n2CC(=O)N1CCC(N2CCCC2)CC1` [Example 7063] came in with an IC50 of 1000 to 10000 nM.

Molecule `CC(CNC(=O)c1ccc2c(c1)c(C1CCCCC1)c(-c1ccoc1)n2CC(=O)N1CCC(N2CCCC2)CC1)c1ccccc1` (centres unmarked) [Example 7030] yielded an IC50 of 1000 to 10000 nM.

Take `COC(=O)C(Cc1ccc(O)cc1)NC(=O)c1ccc2c(c1)c(C1CCCCC1)c(-c1ccoc1)n2CC(=O)N1CCC(N2CCCC2)CC1` (centres unmarked) [Example 7057]: the IC50 lay within 1000 to 10000 nM.
